From US20250171414A1, “COMPOUND SERVING AS MASP-2 INHIBITOR, PHARMACEUTICAL COMPOSITION, PREPARATION METHOD THEREFOR, AND USE THEREOF” (WUHAN CREATERNA SCIENCE AND TECHNOLOGY CO., LTD., priority 2022, published 2025)

These molecules were tested on lectin pathway (MBL) in human serum (assay: Inhibition of activity of lectin pathway (MBL) in human serum (WIESLAB Complement System MBL Pathway kit)). Conditions: 1% human serum.
Format: biochemical
Method: The inhibition of the activity of the lectin pathway (MBL) in human serum by compounds was detected using a WIESLAB® Complement System MBL Pathway kit (SVAR, COMPLMP320). Test compounds were each serially diluted in a buffer (Diluent MP), and 1% human serum was incubated with the diluted compound solution for 15 min at room temperature. 100 μL of the mixture was added to a microplate and incubated at 37° C. for 60 min. The liquid in the wells was discarded, and the microplate was washed three times with a washing solution. A Conjugate antibody solution was added at 100 μL/well, and the resulting mixture was incubated for 30 min at 25° C. The liquid in the wells was discarded, and the microplate was washed three times with a washing solution; a substrate solution was added at 100 μL/well, and the resulting mixture was incubated for 30 min at 25° C.; the terminator was added at 50 μL/well, and the absorbance at 405 nm was detected within 30 min by using a microplate reader.

Question: How did the IC50 turn out when `Cc1cc(C2=C[C@@H](C(=O)N[C@@H](C)C(=O)N[C@@H]3CCc4nc(N)ccc43)NCC2)ccc1F` (single isomer, unassigned) [Compound L071-IS-02] was run?
Answer: 7.85 nM

Question: With `C[C@H](NC(=O)[C@H]1CC(c2cccc(F)c2)CCN1)C(=O)NC1CCc2nc(N)ccc21` (stereo in doubt) [Compound L039-IS-02, (2R,4S)-N-((2S)-1-((2-amino-6,7-dihydro-5H-cyclopenta[b]pyridin-5-yl)amino)-1-oxopropan-2-yl)-4-(3-fluorophenyl)piperidine-2-carboxamide] as the molecule, how does the IC50 read?
Answer: 2.36 nM

Question: `Cc1ccc(C[C@@H]2CN[C@@H](C(=O)N[C@@H](C)C(=O)NC3CCc4nc(N)ccc43)C2)cc1` (stereo partly drawn) [Compound L004, (2R,4S)—N-((2S)-1-((2-amino-6,7-dihydro-5H-cyclopenta[b]pyridin-5-yl)amino)-1-oxopropan-2-yl)-4-(4-methylbenzyl) pyrrolidine-2-carboxamide] was tested. Which IC50 did it give?
Answer: 12.8 nM

Question: Which IC50 does the source give for `CC(c1ccccc1)[C@H]1CN[C@@H](C(=O)N[C@@H](C)C(=O)NC2CCc3nc(N)ccc32)C1` (stereo partly drawn) [Compound L009, (2R,4S)—N-((2S)-1-((2-amino-6,7-dihydro-5H-cyclopenta[b]pyridin-5-yl)amino)-1-oxopropan-2-yl)-4-(1-phenylethyl) pyrrolidine-2-carboxamide] here?
Answer: 7.08 nM

Question: For `Cc1cc(C[C@@H]2CN[C@@H](C(=O)N[C@@H](C)C(=O)NC3CCc4nc(N)ccc43)C2)ccn1` (stereo partly drawn) [Compound L011, (2R,4S)—N-((2S)-1-((2-amino-6,7-dihydro-5H-cyclopenta[b]pyridin-5-yl)amino)-1-oxopropan-2-yl)-4-((2-methylpyridin-4-yl)methyl) pyrrolidine-2-carboxamide], which IC50 is on record?
Answer: 7.55 nM

Question: With `C[C@H](NC(=O)[C@H]1C[C@H](Cc2nc3cc(Cl)ccc3s2)CN1)C(=O)NC1CCc2nc(N)ccc21` (stereo partly drawn) [Compound L013, (2R,4R)—N-((2S)-1-((2-amino-6,7-dihydro-5H-cyclopenta[b]pyridin-5-yl)amino)-1-oxopropan-2-yl)-4-((5-chlorobenzo[d]thiazol-2-yl)methyl) pyrrolidine-2-carboxamide] as the molecule, how does the IC50 read?
Answer: 6.62 nM

Question: Which IC50 does the source give for `COc1cc2ccccc2cc1C[C@@H]1CN[C@@H](C(=O)N[C@@H](C)C(=O)NC2CCc3nc(N)ccc32)C1` (stereo partly drawn) [Compound L015, (2R,4S)—N-((2S)-1-((2-amino-6,7-dihydro-5H-cyclopenta[b]pyridin-5-yl)amino)-1-oxopropan-2-yl)-4-((3-methoxynaphthalen-2-yl)methyl) pyrrolidine-2-carboxamide] here?
Answer: 1.99 nM

Question: Which IC50 does the source give for `Cc1cccc(C[C@@H]2CN[C@@H](C(=O)N[C@@H](C)C(=O)NC3CCc4nc(N)ccc43)C2)c1` (stereo partly drawn) [Compound L016, (2R,4S)—N-((2S)-1-((2-amino-6,7-dihydro-5H-cyclopenta[b]pyridin-5-yl)amino)-1-oxopropan-2-yl)-4-(3-methylbenzyl) pyrrolidine-2-carboxamide] here?
Answer: 4.64 nM

Question: Which IC50 does the source give for `C[C@H](NC(=O)[C@H]1C[C@H](C2(c3ccccc3)CC2)CN1)C(=O)NC1CCc2nc(N)ccc21` (stereo partly drawn) [Compound L017, (2R,4R)—N-((2S)-1-((2-amino-6,7-dihydro-5H-cyclopenta[b]pyridin-5-yl)amino)-1-oxopropan-2-yl)-4-(1-phenylcyclopropyl) pyrrolidine-2-carboxamide] here?
Answer: 6.96 nM

Question: Which IC50 does the source give for `C[C@H](NC(=O)c1cc(-c2ccccc2)c[nH]1)C(=O)N[C@@H]1CCc2nc(N)ccc21` [Compound L020-IS-01, N—((S)-1-(((R)-2-amino-6,7-dihydro-5H-cyclopenta[b]pyridin-5-yl)amino)-1-oxopropan-2-yl)-4-phenyl-1H-pyrrole-2-carboxamide] here?
Answer: 15 nM

Question: Which IC50 does the source give for `C[C@H](NC(=O)C1CC(c2ccccc2)CCN1)C(=O)NC1CCc2nc(N)ccc21` (stereo partly drawn) [Compound L021, N-((2S)-1-((2-amino-6,7-dihydro-5H-cyclopenta[b]pyridin-5-yl)amino)-1-oxopropan-2-yl)-4-phenylpiperidine-2-carboxamide] here?
Answer: 3.75 nM

Question: `C[C@H](NC(=O)[C@H]1C[C@@H](c2ccccc2)CCN1)C(=O)NC1CCc2nc(N)ccc21` (stereo partly drawn) [Compound L021-IS-01, (2R,4S)—N-((2S)-1-((2-amino-6,7-dihydro-5H-cyclopenta[b]pyridin-5-yl)amino)-1-oxopropan-2-yl)-4-phenylpiperidine-2-carboxamide] was tested. Which IC50 did it give?
Answer: 0.26 nM

Question: How did the IC50 turn out when `C[C@H](NC(=O)[C@H]1CN(Cc2ccccc2)CCN1)C(=O)NC1CCc2nc(N)ccc21` (stereo partly drawn) [Compound L024, (2R)—N-((2S)-1-((2-amino-6,7-dihydro-5H-cyclopenta[b]pyridin-5-yl)amino)-1-oxopropan-2-yl)-4-benzylpiperazine-2-carboxamide] was run?
Answer: 6.34 nM

Question: With `C[C@H](NC(=O)[C@H]1CN(c2cccc3ccccc23)CCN1)C(=O)NC1CCc2nc(N)ccc21` (some centres unmarked) [Compound L025] as the molecule, how does the IC50 read?
Answer: 5.52 nM

Question: How did the IC50 turn out when `Nc1ccc2c(n1)CCC2NC(=O)[C@@H]1CCCN1C(=O)[C@H]1C[C@H](Cc2ccc(F)cc2)CN1` (stereo partly drawn) [Compound L031, (2S)—N-(2-amino-6,7-dihydro-5H-cyclopenta[b]pyridin-5-yl)-1-((2R,4S)-4-(4-fluorobenzyl)pyrrolidine-2-carbonyl) pyrrolidine-2-carboxamide] was run?
Answer: 4.49 nM

Question: For `C[C@H](NC(=O)[C@H]1C[C@@H](c2ccc(F)cc2)CCN1)C(=O)NC1CCc2nc(N)ccc21` (stereo partly drawn) [Compound L033-IS-02, (2R,4S)—N-((2S)-1-((2-amino-6,7-dihydro-5H-cyclopenta[b]pyridin-5-yl)amino)-1-oxopropan-2-yl)-4-(4-fluorophenyl) piperidine-2-carboxamide], which IC50 is on record?
Answer: 2.26 nM

Question: For `C[C@H](NC(=O)[C@H]1C[C@@H](c2ccccc2F)CCN1)C(=O)NC1CCc2nc(N)ccc21` (stereo partly drawn) [Compound L038-IS-02, (2R,4S)—N-((2S)-1-((2-amino-6,7-dihydro-5H-cyclopenta[b]pyridin-5-yl)amino)-1-oxopropan-2-yl)-4-(2-fluorophenyl) piperidine-2-carboxamide], which IC50 is on record?
Answer: 4.76 nM

Question: Which IC50 does the source give for `C[C@H](NC(=O)[C@H]1C[C@@H](c2cccc(C(F)(F)F)c2)CCN1)C(=O)NC1CCc2nc(N)ccc21` (stereo partly drawn) [Compound L044-IS-02, (2R,4S)-N-((2S)-1-((2-amino-6,7-dihydro-5H-cyclopenta[b]pyridin-5-yl)amino)-1-oxopropan-2-yl)-4-(3-(trifluoromethyl)phenyl)piperidine-2-carboxamide] here?
Answer: 1.83 nM

Question: With `C[C@H](NC(=O)[C@H]1C[C@@H](c2ccc(F)c(F)c2)CCN1)C(=O)NC1CCc2nc(N)ccc21` (stereo partly drawn) [Compound L045-IS-02, (2R,4S)-N-((2S)-1-((2-amino-6,7-dihydro-5H-cyclopenta[b]pyridin-5-yl)amino)-1-oxopropan-2-yl)-4-(3,4-difluorophenyl)piperidine-2-carboxamide] as the molecule, how does the IC50 read?
Answer: 4.11 nM

Question: How did the IC50 turn out when `C[C@H](NC(=O)[C@H]1C[C@@H](c2cccc(OC(F)(F)F)c2)CCN1)C(=O)NC1CCc2nc(N)ccc21` (stereo partly drawn) [Compound L046-IS-02, (2R,4S)-N-((2S)-1-((2-amino-6,7-dihydro-5H-cyclopenta[b]pyridin-5-yl)amino)-1-oxopropan-2-yl)-4-(3-(trifluoromethoxy)phenyl)piperidine-2-carboxamide] was run?
Answer: 3.71 nM

Question: With `C[C@H](NC(=O)[C@H]1C[C@@H](c2ccc(F)cc2F)CCN1)C(=O)NC1CCc2nc(N)ccc21` (stereo partly drawn) [Compound L047-IS-02, (2R,4S)-N-((2S)-1-((2-amino-6,7-dihydro-5H-cyclopenta[b]pyridin-5-yl)amino)-1-oxopropan-2-yl)-4-(2,4-difluorophenyl)piperidine-2-carboxamide] as the molecule, how does the IC50 read?
Answer: 3.06 nM

Question: For `C[C@H](NC(=O)[C@H]1C[C@@H](c2cccc(F)c2F)CCN1)C(=O)NC1CCc2nc(N)ccc21` (stereo partly drawn) [Compound L048-IS-02, (2R,4S)-N-((2S)-1-((2-amino-6,7-dihydro-5H-cyclopenta[b]pyridin-5-yl)amino)-1-oxopropan-2-yl)-4-(2,3-difluorophenyl)piperidine-2-carboxamide], which IC50 is on record?
Answer: 6.08 nM

Question: With `Nc1ccc2c(n1)CC[C@H]2NC(=O)[C@H]1[C@H]2C[C@H]2CN1C(=O)[C@H]1C[C@H](Cc2ccc(F)cc2)CN1` [Compound L055-IS-02, (1S,2R,5R)—N—((R)-2-amino-6,7-dihydro-5H-cyclopenta [b]pyridin-5-yl)-3-((2R,4S)-4-(4-fluorobenzyl)pyrrolidine-2-carbonyl)-3-azabicyclo[3.1.0]hexane-2-carboxamide] as the molecule, how does the IC50 read?
Answer: 7 nM

Question: How did the IC50 turn out when `C[C@H](NC(=O)[C@@H]1C=C(c2ccc(F)c(C(F)(F)F)c2)CCN1)C(=O)N[C@@H]1CCc2nc(N)ccc21` [Compound L070-IS-02, (S)-N-((S)-1-(((R)-2-amino-6,7-dihydro-5H-cyclopenta[b]pyridin-5-yl)amino)-1-oxopropan-2-yl)-4-(4-fluoro-3-(trifluoromethyl)phenyl)-1,2,5,6-tetrahydropyridine-2-carboxamide] was run?
Answer: 17.6 nM

Question: `C[C@H](NC(=O)[C@@H]1C=C(c2ccc(F)c(Cl)c2)CCN1)C(=O)N[C@@H]1CCc2nc(N)ccc21` [Compound L072-IS-02, (S)-N-((S)-1-(((R)-2-amino-6,7-dihydro-5H-cyclopenta[b]pyridin-5-yl)amino)-1-oxopropan-2-yl)-4-(3-chloro-4-fluorophenyl)-1,2,5,6-tetrahydropyridine-2-carboxamide] was tested. Which IC50 did it give?
Answer: 9.26 nM

Question: Which IC50 does the source give for `C[C@H](NC(=O)[C@@H]1C=C(c2ccc(F)cc2C(F)(F)F)CCN1)C(=O)N[C@@H]1CCc2nc(N)ccc21` [Compound L073-IS-02, (S)-N-((S)-1-(((R)-2-amino-6,7-dihydro-5H-cyclopenta[b]pyridin-5-yl)amino)-1-oxopropan-2-yl)-4-(4-fluoro-2-(trifluoromethyl)phenyl)-1,2,5,6-tetrahydropyridine-2-carboxamide] here?
Answer: 4.25 nM
